The target of the test is T1, CCR9 (Homo sapiens, UniProt P51686).
T1 construct: chemokine expressing cells (such as THP-1 cells for CCR2 assay or MOLT-4 cells for CCR9 assay); host or cells: MOLT-4
T1 sequence (P51686 1-369): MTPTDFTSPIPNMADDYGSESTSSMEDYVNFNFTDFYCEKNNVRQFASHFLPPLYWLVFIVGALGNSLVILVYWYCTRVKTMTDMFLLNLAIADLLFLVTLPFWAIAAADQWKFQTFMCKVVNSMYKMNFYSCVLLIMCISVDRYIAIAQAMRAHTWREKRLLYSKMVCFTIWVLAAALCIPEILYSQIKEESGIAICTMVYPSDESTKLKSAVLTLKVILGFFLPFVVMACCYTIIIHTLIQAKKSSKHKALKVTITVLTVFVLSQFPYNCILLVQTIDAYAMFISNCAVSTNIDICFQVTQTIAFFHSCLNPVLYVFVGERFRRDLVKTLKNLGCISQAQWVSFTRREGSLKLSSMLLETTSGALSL
Kind of test: CCR9 activity in one of the chemotaxis, binding or calcium mobilization assays. The class given is cell-based. The note with it: assay not specified per compound. The procedure, abridged: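 Chemotaxis: THP-1 cells (CCR2, 0.1 nM MCP-1, 90 min) or MOLT-4 cells (CCR9, 50 nM TECK, 150 min) preincubated with compound 15 min RT, migration at 37 °C through 5-μm membrane, CyQUANT read; IC50 by nonlinear regression. Calcium flux: Fluo-4-loaded cells, 0.1 nM MCP-1 or 25 nM TECK. Binding: THP-1, ~50 pM [125I]MCP-1, 3 h, 4 °C.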

A value given as a limit tells only on which side of the number the result lay.

As to `COCc1nnc(-c2cc(Cl)c(F)cc2NS(=O)(=O)c2ccc(C(C)(C)C)cc2)n1C` [Compound 107, 4-tert-butyl-N-(4-chloro-5-fluoro-2-(5-(methoxymethyl)-4-methyl-4H-1,2,4-triazol-3-yl)phenyl)benzenesulfonamide], the IC50 (commonly the point on the concentration scale where inhibition reaches its midpoint) is less than 1000 nM.
With `CC(=O)NCCn1c(C)nnc1-c1cc(Cl)ccc1NS(=O)(=O)c1ccc(C(C)(C)C)cc1` [Compound 27, N-(2-(3-(2-(4-tert-butylphenylsulfonamido)-5-chlorophenyl)-5-methyl-4H-1,2,4-triazol-4-yl)ethyl)acetamide] the figure was less than 1000 nM.
With `CC(C)n1cnnc1-c1cc(Cl)ccc1NS(=O)(=O)c1ccc(C(C)(C)C)cc1` [Compound 1, 4-tert-butyl-N-(4-chloro-2-(4-isopropyl-4H-1,2,4-triazol-3-yl)phenyl)benzenesulfonamide] the figure was less than 1000 nM.
With `Cc1nnc(-c2cc(Cl)ccc2NS(=O)(=O)c2ccc(C(C)(C)C)cc2)n1[C@H]1CCCNC1` [Compound 114] the figure was less than 1000 nM; with `Cc1nnc(-c2cc(Cl)ccc2NS(=O)(=O)c2ccc(C(C)(C)C)cc2)n1C(C)C` [Compound 3, 4-tert-butyl-N-(4-chloro-2-(4-isopropyl-5-methyl-4H-1,2,4-triazol-3-yl)phenyl)benzenesulfonamide], less than 1000 nM.
Take `Cn1c(CN2CCNCC2)nnc1-c1cc(Cl)c(F)cc1NS(=O)(=O)c1ccc(C(C)(C)C)cc1` [Compound 147]: the IC50 is less than 1000 nM.
In the case of `CC(C)(C)c1ccc(S(=O)(=O)Nc2ccc(Cl)cc2-c2nncn2[C@H]2CCNC2)cc1` [Compound 32], the IC50 was less than 1000 nM.
Under `CC(C)OCc1nnc(-c2cc(Cl)ccc2NS(=O)(=O)c2ccc(C(C)(C)C)cc2)n1C` [Compound 103, 4-tert-butyl-N-(4-chloro-2-(5-(isopropoxymethyl)-4-methyl-4H-1,2,4-triazol-3-yl)phenyl)benzenesulfonamide] stands less than 1000 nM; under `CN(C)Cc1nnc(-c2cc(Cl)c(F)cc2NS(=O)(=O)c2ccc(C(C)(C)C)cc2)n1C` [Compound 39, 4-tert-butyl-N-(4-chloro-2-(5-((dimethylamino)methyl)-4-methyl-4H-1,2,4-triazol-3-yl)-5-fluorophenyl)benzenesulfonamide], less than 1000 nM.
Under `CCn1c(C)nnc1-c1cc(Cl)ccc1NS(=O)(=O)c1ccc(OC(C)C)cc1` [Compound 17, N-(4-chloro-2-(4-ethyl-5-methyl-4H-1,2,4-triazol-3-yl)phenyl)-4-isopropoxybenzenesulfonamide] stands less than 1000 nM.
Under `Cc1nnc(-c2cc(Cl)ccc2NS(=O)(=O)c2ccc(C(C)(C)C)cc2)n1C1CCNCC1` [Compound 20] stands less than 1000 nM.
Consider `CC1(c2ccc(S(=O)(=O)Nc3ccc(Cl)cc3-c3nncn3[C@H]3CCNC3)cc2)CCOCC1` [Compound 142, (S)—N-(4-chloro-2-(4-(pyrrolidin-3-yl)-4H-1,2,4-triazol-3-yl)phenyl)-4-(4-methyltetrahydro-2H-pyran-4-yl)benzenesulfonamide], for which the concentration for half-maximal inhibition (IC50) is less than 1000 nM.
In the case of `CNCc1nnc(-c2cc(Cl)c(F)cc2NS(=O)(=O)c2ccc(C(C)(C)C)cc2)n1C` [Compound 45, 4-tert-butyl-N-(4-chloro-5-fluoro-2-(4-methyl-5-((methylamino)methyl)-4H-1,2,4-triazol-3-yl)phenyl)benzenesulfonamide], the IC50 was less than 1000 nM.
With `Cc1nnc(-c2cc(Cl)ccc2NS(=O)(=O)c2ccc(C(C)(C)C)cc2)n1-c1cc[nH]n1` [Compound 16] the figure was less than 1000 nM.
Under `Cn1c(CN2CCOCC2)nnc1-c1cc(Cl)c(F)cc1NS(=O)(=O)c1ccc(C(C)(C)C)cc1` [Compound 66] stands less than 1000 nM; under `CC(=O)N1CCC(n2c(C)nnc2-c2cc(Cl)ccc2NS(=O)(=O)c2ccc(C(C)(C)C)cc2)C1` (stereo not drawn) [Compound 124], less than 1000 nM.
With `CCc1nnc(-c2cc(Cl)ccc2NS(=O)(=O)c2ccc(C(C)(C)C)cc2)n1C(C)C` [Compound 13, 4-tert-butyl-N-(4-chloro-2-(5-ethyl-4-isopropyl-4H-1,2,4-triazol-3-yl)phenyl)benzenesulfonamide] the figure was less than 1000 nM; with `Cc1nnc(-c2c(NS(=O)(=O)c3ccc(C(C)(C)C)cc3)ccc(Cl)c2F)n1C` [Compound 28, 4-tert-butyl-N-(4-chloro-2-(4,5-dimethyl-4H-1,2,4-triazol-3-yl)-3-fluorophenyl)benzenesulfonamide], less than 1000 nM; with `CC(C)NCc1nnc(-c2cc(Cl)ccc2NS(=O)(=O)c2ccc(C(C)(C)C)cc2)n1C` [Compound 138, 4-tert-butyl-N-(4-chloro-2-(5-((isopropylamino)methyl)-4-methyl-4H-1,2,4-triazol-3-yl)phenyl)benzenesulfonamide], less than 1000 nM.
In the case of `CC(C)(C)c1ccc(S(=O)(=O)Nc2cc(F)c(F)cc2-c2nncn2[C@H]2CCNC2)cc1` [Compound 37], the IC50 is less than 1000 nM.
For the compound `Cc1nnc(-c2cc(Cl)ccc2NS(=O)(=O)c2ccc(C(C)(C)C)cc2)n1C1CCC1` [Compound 84, 4-tert-butyl-N-(4-chloro-2-(4-cyclobutyl-5-methyl-4H-1,2,4-triazol-3-yl)phenyl)benzenesulfonamide], the IC50 was less than 1000 nM.
For the compound `Cn1c(-c2cocn2)nnc1-c1cc(Cl)ccc1NS(=O)(=O)c1ccc(C(C)(C)C)cc1` [Compound 40], the IC50 is less than 1000 nM.
For the compound `Cn1c(-c2cc(Cl)ccc2NS(=O)(=O)c2ccc(C(C)(C)C)cc2)nnc1C1CCOCC1` [Compound 9], the IC50 was less than 1000 nM.
Under `CC(C)(C)c1ccc(S(=O)(=O)Nc2ccc(Cl)cc2-c2nnc3ncccn23)cc1` [Compound 156, N-(2-([1,2,4]triazolo[4,3-a]pyrimidin-3-yl)-4-chlorophenyl)-4-tert-butylbenzenesulfonamide] stands less than 1000 nM.
Under `Cc1nnc(-c2cc(Cl)ccc2NS(=O)(=O)c2ccc(C(C)(C)C)cc2)n1C1CCCC1` [Compound 14, 4-tert-butyl-N-(4-chloro-2-(4-cyclopentyl-5-methyl-4H-1,2,4-triazol-3-yl)phenyl)benzenesulfonamide] stands less than 1000 nM.
With `Cc1nnc(-c2ccc(F)cc2NS(=O)(=O)c2ccc(C(C)(C)C)cc2)n1C` [Compound 72, 4-tert-butyl-N-(2-(4,5-dimethyl-4H-1,2,4-triazol-3-yl)-5-fluorophenyl)benzenesulfonamide] the figure was less than 1000 nM; with `CC(C)(C)c1ccc(S(=O)(=O)Nc2cc(F)c(Cl)cc2-c2nncn2C2CCCOC2)cc1` (stereo not drawn) [Compound 108], less than 1000 nM; with `Cn1c(-c2cc(Cl)c(F)cc2NS(=O)(=O)c2ccc(C(C)(C)C)cc2)nnc1C(C)(C)O` [Compound 57, 4-tert-butyl-N-(4-chloro-5-fluoro-2-(5-(2-hydroxypropan-2-yl)-4-methyl-4H-1,2,4-triazol-3-yl)phenyl)benzenesulfonamide], less than 1000 nM.
On to `Cn1c(-c2cc(Cl)ccc2NS(=O)(=O)c2ccc(C(C)(C)C)cc2)nnc1C1CCCO1` (stereo not drawn) [Compound 102], for which the half-maximal inhibitory concentration (IC50) is less than 1000 nM.
Turning to `CNCCn1c(C)nnc1-c1cc(Cl)ccc1NS(=O)(=O)c1ccc(C(C)(C)C)cc1` [Compound 126, 4-tert-butyl-N-(4-chloro-2-(5-methyl-4-(2-(methylamino)ethyl)-4H-1,2,4-triazol-3-yl)phenyl)benzenesulfonamide], the IC50 is less than 1000 nM.
Turning to `Cc1nnc(-c2cc(Cl)ccc2NS(=O)(=O)c2ccc(C(C)(C)C)cc2)n1-c1ccccc1` [Compound 4, 4-tert-butyl-N-(4-chloro-2-(5-methyl-4-phenyl-4H-1,2,4-triazol-3-yl)phenyl)benzenesulfonamide], the IC50 was less than 1000 nM.
With `Cn1c(-c2cc(Cl)c(F)cc2NS(=O)(=O)c2ccc(C(C)(C)C)cc2)nnc1C1CCCOC1` (stereo not drawn) [Compound 63] the figure was less than 1000 nM; with `CC(C)n1cnnc1-c1ccc(Cl)cc1NS(=O)(=O)c1ccc(C(C)(C)C)cc1` [Compound 18, 4-tert-butyl-N-(5-chloro-2-(4-isopropyl-4H-1,2,4-triazol-3-yl)phenyl)benzenesulfonamide], less than 1000 nM.
Under `Cc1nnc(-c2cc(Cl)ccc2NS(=O)(=O)c2ccc(C(C)(C)C)cc2)n1C1CCN(S(C)(=O)=O)CC1` [Compound 93] stands less than 1000 nM; under `CC(C)(C)c1ccc(S(=O)(=O)Nc2ccc(Cl)cc2-c2nncn2[C@H]2CCCOC2)cc1` [Compound 104], less than 1000 nM; under `Cc1nnc(-c2cc(Cl)ccc2NS(=O)(=O)c2ccc(C(C)(C)C)cc2)n1[C@@H]1CCNC1` [Compound 73], less than 1000 nM.
Under `CC(C)n1cnnc1-c1cc(Cl)c(F)cc1NS(=O)(=O)c1ccc(C(C)(C)C)cc1` [Compound 78, 4-tert-butyl-N-(4-chloro-5-fluoro-2-(4-isopropyl-4H-1,2,4-triazol-3-yl)phenyl)benzenesulfonamide] stands less than 1000 nM; under `Cc1nnc(-c2cc(Cl)c(F)cc2NS(=O)(=O)c2ccc(C(C)(C)C)cc2)n1[C@H]1CCNC1` [Compound 106], less than 1000 nM; under `Cc1nnc(-c2cc(Cl)ccc2NS(=O)(=O)c2ccc(OC(C)C)cc2)n1C` [Compound 68, N-(4-chloro-2-(4,5-dimethyl-4H-1,2,4-triazol-3-yl)phenyl)-4-isopropoxybenzenesulfonamide], less than 1000 nM.

The values above are taken from US8153818B2, “Triazolyl phenyl benzenesulfonamides” (ChemoCentryx, Inc., priority 2006, dated 2012).
